From US7179825B2, “Retinoic acid mimetic anilides” (Janssen Pharmaceutica N.V., priority 1997, dated 2007) come the findings set out here.

pIC50: −log10 of the molar value. A value given as a limit tells only on which side of the number the result lay.

One assay has as its system Ovariectomized rats. Kind of assay: Vaginal keratinization test on ovariectomized rats (Example C.2). The conditions noted are these: estradiol undecylate induced keratinization, per os once daily on days 1-3, active dose = 50% of rats show complete suppression. It is filed as in vivo. Summed up:
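Value is the lowest oral dose (mg/kg) at which half of tested rats show complete suppression of estradiol undecylate-induced vaginal keratinization by histology. Ovariectomized rats received 100 μg/100 g estradiol undecylate s.c., then compound or PEG 200 vehicle p.o. daily for three days; sacrifice one day later.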

The subject of assay [1] is metabolism of retinoic acid in human breast cancer cells. Description: Inhibition of retinoic acid (RA) metabolism (Example C.1). It is filed as cell-based. To be noted: MCF-7 human breast cancer cells, 3H-RA as substrate; concentration needed to reduce the amount of metabolites to 50% of the control. Summed up:
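Test compound (in 1% DMSO) added at several concentrations to MCF-7 cell suspensions fed ³H-RA, after RA induction of metabolism one day earlier. Scintillation counting of the separated polar metabolite fraction; IC50 = concentration giving 50% of control metabolite level.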

For orientation: pIC50 means the negative decadic logarithm of the IC50, by convention in mol/L. For the compound `CCOc1ccc(CC(=O)Nc2ccc(C(C(CC)CC)n3cncn3)cc2)cc1Cl` (racemic) [Compound 75], the “LAD (lowest active dose)” value in the assay on Ovariectomized rats turned out to be 2.50 mg/kg. The negative logarithm of the IC50 (pIC50) in assay [1] is 9.38.
Take `CCOc1ccc(CC(=O)Nc2ccc(C(C(CC)CC)n3cncn3)cc2)cc1C` (racemic) [Compound 76]: in the assay with Ovariectomized rats, the “LAD (lowest active dose)” value is given as more than 2.50 mg/kg. In assay [1], the negative logarithm of the IC50 (pIC50) is 9.23.
Take `CCC(CC)C(c1ccc(NC(=O)Cc2ccc(C)c(C)c2)cc1)n1cncn1` (racemic) [Compound 77]: in the assay with Ovariectomized rats, the “LAD (lowest active dose)” value came out at 2.50 mg/kg. Further, the pIC50 in assay [1] was 9.48.
For the compound `CCC(CC)C(c1ccc(NC(=O)Cc2ccc(OC)c(C)c2)cc1)n1cncn1` (racemic) [Compound 78], in the assay with Ovariectomized rats, the “LAD (lowest active dose)” value worked out at 1.25 mg/kg. The pIC50 in assay [1] was 9.64.
Consider `CCC(CC)C(c1ccc(NC(=O)Cc2ccc(O)c(Cl)c2)cc1)n1cncn1` (racemic) [Compound 79], for which the “LAD (lowest active dose)” value in the assay with Ovariectomized rats is listed as 2.50 mg/kg. In addition, in assay [1], the negative-log IC50 (pIC50) is 10.47.
`CCC(CC)C(c1ccc(NC(=O)Cc2cc(OC)c(OC)c(OC)c2)cc1)n1cncn1` (racemic) [Compound 80]: the “LAD (lowest active dose)” value in the assay on Ovariectomized rats is reported as more than 2.50 mg/kg. Also, the negative logarithm of the IC50 (pIC50) in assay [1] was 10.32.
For `CCC(CC)C(c1ccc(NC(=O)Cc2cc(C)c(C)c(C)c2)cc1)n1cncn1` (racemic) [Compound 81], the “LAD (lowest active dose)” value in the assay on Ovariectomized rats worked out at 2.50 mg/kg. The pIC50 in assay [1] was 9.64.
`CCOc1ccc(CC(=O)Nc2ccc(C(C(CC)CC)n3cncn3)cc2)cc1OCC` (racemic) [Compound 82]: the “LAD (lowest active dose)” value with Ovariectomized rats was 2.50 mg/kg. Also, in assay [1], the negative logarithm of the IC50 (pIC50) was 8.94.
As for `CCC(CC)C(c1ccc(NC(=O)Cc2ccc(Cl)c(OC)c2)cc1)n1cncn1` (racemic) [Compound 83], the “LAD (lowest active dose)” value in the assay on Ovariectomized rats is reported as more than 2.50 mg/kg. Further, the negative logarithm of the IC50 (pIC50) in assay [1] was 9.79.
In the same order, the values of `CCC(CC)C(c1ccc(NC(=O)Cc2ccc(C)c(OC)c2)cc1)n1cncn1` (racemic) [Compound 84] are more than 2.50 mg/kg and 8.76.
The matching figures for `CCC(CC)C(c1ccc(NC(=O)Cc2ccc(Cl)cc2)cc1)n1ccnc1` (racemic) [Compound 87]: 1.25 mg/kg and 9.55.
Turning to `CCC(CC)C(c1ccc(NC(=O)Cc2ccc(F)cc2)cc1)n1ccnc1` (racemic) [Compound 88], the “LAD (lowest active dose)” value in the assay with Ovariectomized rats is 2.50 mg/kg. In assay [1], the negative-log IC50 (pIC50) is 9.83.
The matching figures for `CCC(CC)C(c1ccc(NC(=O)Cc2ccccc2OC)cc1)n1ccnc1` (racemic) [Compound 89]: 2.50 mg/kg and 9.88.
Consider `CCC(CC)C(c1ccc(NC(=O)Cc2cccc(OC)c2)cc1)n1ccnc1` (racemic) [Compound 90], for which the “LAD (lowest active dose)” value with Ovariectomized rats amounted to 2.50 mg/kg. The pIC50 in assay [1] is 8.63.
On to `CCC(CC)C(c1ccc(NC(=O)Cc2ccc(OC)c(OC)c2)cc1)n1ccnc1` (racemic) [Compound 91], for which the “LAD (lowest active dose)” value in the assay on Ovariectomized rats is recorded as 2.50 mg/kg. Moreover, the negative-log IC50 (pIC50) in assay [1] was 9.03.
`CCC(CC)C(c1ccc(NC(=O)Cc2ccc(OC(C)C)cc2)cc1)n1ccnc1` (racemic) [Compound 92]: the “LAD (lowest active dose)” value with Ovariectomized rats was found to be 5.00 mg/kg. In addition, in assay [1], the negative logarithm of the IC50 (pIC50) is 8.66.
Regarding `CCCOc1ccc(CC(=O)Nc2ccc(C(C(CC)CC)n3ccnc3)cc2)cc1` (racemic) [Compound 93], the “LAD (lowest active dose)” value with Ovariectomized rats is 2.50 mg/kg. Besides, the negative logarithm of the IC50 (pIC50) in assay [1] was 8.80.
Consider `CCC(CC)C(c1ccc(NC(=O)Cc2ccc(C)cc2)cc1)n1ccnc1` (racemic) [Compound 94], for which, in the assay with Ovariectomized rats, the “LAD (lowest active dose)” value was determined as 5.00 mg/kg. Also, the negative logarithm of the IC50 (pIC50) in assay [1] is 8.97.
In the same order, the values of `CCOc1ccc(CC(=O)Nc2ccc(C(C(CC)CC)n3ccnc3)cc2)cc1` (racemic) [Compound 95] are 5.00 mg/kg and 8.83.
The matching figures for `CCCCOc1ccc(CC(=O)Nc2ccc(C(C(CC)CC)n3ccnc3)cc2)cc1` (racemic) [Compound 96]: 2.50 mg/kg and 8.96.
In the same order, the values of `CCC(CC)C(c1ccc(NC(=O)Cc2ccc(O)c(OC)c2)cc1)n1ccnc1.O=C(O)C(=O)O` (racemic) [Compound 97] are 2.50 mg/kg and 8.88.
For the compound `CCC(CC)C(c1ccc(NC(=O)Cc2cc(OC)ccc2OC)cc1)n1ccnc1` (racemic) [Compound 98], in the assay on Ovariectomized rats, the “LAD (lowest active dose)” value came out at 5.00 mg/kg. Further, the negative-log IC50 (pIC50) in assay [1] is 8.79.
`CCC(CC)C(c1ccc(NC(=O)Cc2ccc(N(C)C)cc2)cc1)n1ccnc1` (racemic) [Compound 99]: the “LAD (lowest active dose)” value in the assay on Ovariectomized rats stood at 2.50 mg/kg. In assay [1], the pIC50 was 8.24.
Consider `CCC(CC)C(c1ccc(NC(=O)Cc2cccc(OC)c2OC)cc1)n1ccnc1` (racemic) [Compound 102], for which the “LAD (lowest active dose)” value in the assay on Ovariectomized rats was 5.00 mg/kg. In addition, in assay [1], the pIC50 was 10.17.
For the compound `CCC(CC)C(c1ccc(NC(=O)Cc2ccc(Oc3ccccc3)cc2)cc1)n1ccnc1` (racemic) [Compound 103], in the assay on Ovariectomized rats, the “LAD (lowest active dose)” value is listed as more than 2.50 mg/kg. In assay [1], the negative-log IC50 (pIC50) was 8.15.
`CCC(CC)C(c1ccc(NC(=O)Cc2ccccc2C)cc1)n1ccnc1` (racemic) [Compound 104]: the “LAD (lowest active dose)” value in the assay on Ovariectomized rats is given as 2.50 mg/kg. In addition, the negative-log IC50 (pIC50) in assay [1] is 10.39.
On to `CCC(CC)C(c1ccc(NC(=O)Cc2ccc(OC)cc2)cc1)n1ccnc1` (racemic) [Compound 105], for which the “LAD (lowest active dose)” value in the assay on Ovariectomized rats is given as 2.50 mg/kg. For the same compound, the pIC50 in assay [1] is 10.29.
As to `CCC(CC)C(c1ccc(NC(=O)Cc2cc(C)ccc2C)cc1)n1ccnc1` (racemic) [Compound 106], the “LAD (lowest active dose)” value in the assay on Ovariectomized rats turned out to be 2.50 mg/kg. For the same compound, the negative logarithm of the IC50 (pIC50) in assay [1] was 8.77.
Turning to `CCC(CC)C(c1ccc(NC(=O)Cc2ccccc2O)cc1)n1ccnc1` (racemic) [Compound 107], in the assay on Ovariectomized rats, the “LAD (lowest active dose)” value was more than 2.50 mg/kg. Also, in assay [1], the negative logarithm of the IC50 (pIC50) was 8.84.
Consider `CCC(CC)C(c1ccc(NC(=O)Cc2cccc(O)c2)cc1)n1ccnc1.O=C(O)C(=O)O` (racemic) [Compound 109], for which the “LAD (lowest active dose)” value in the assay on Ovariectomized rats came out at 2.50 mg/kg. The negative-log IC50 (pIC50) in assay [1] is 9.49.
With `CCC(CC)C(c1ccc(NC(=O)Cc2ccc(C)c(OC)c2)cc1)n1ccnc1` (racemic) [Compound 110], in the assay with Ovariectomized rats, the “LAD (lowest active dose)” value is recorded as more than 2.50 mg/kg. Besides, the pIC50 in assay [1] is 9.02.
As to `CCC(CC)C(c1ccc(NC(=O)Cc2ccc(O)cc2)cc1)n1ccnc1` (racemic) [Compound 111], in the assay with Ovariectomized rats, the “LAD (lowest active dose)” value was more than 2.50 mg/kg. Besides, the pIC50 in assay [1] was 8.99.
For the compound `CCC(CC)C(c1ccc(NC(=O)Cc2ccc(C)c(C)c2)cc1)n1ccnc1` (racemic) [Compound 112], in the assay with Ovariectomized rats, the “LAD (lowest active dose)” value is 2.50 mg/kg. Moreover, in assay [1], the pIC50 was 9.00.
Turning to `CCC(CC)C(c1ccc(NC(=O)Cc2ccc(Cl)cc2OC)cc1)n1ccnc1` (racemic) [Compound 113], the “LAD (lowest active dose)” value with Ovariectomized rats is more than 2.50 mg/kg. Also, in assay [1], the negative logarithm of the IC50 (pIC50) was 9.07.
As to `CCC(CC)C(c1ccc(NC(=O)Cc2cccc(OC)c2OCc2ccccc2)cc1)n1ccnc1` (racemic) [Compound 115], the “LAD (lowest active dose)” value in the assay with Ovariectomized rats was more than 2.50 mg/kg. For the same compound, in assay [1], the pIC50 was 8.09.
In the same order, the values of `CCC(CC)C(c1ccc(NC(=O)Cc2ccc(OC)c(Cl)c2)cc1)n1ccnc1` (racemic) [Compound 116] are 2.50 mg/kg and 9.17.
